Reference: patent US20060160869A1, “Ubiquitin ligase inhibitors” (Rigel Pharmaceuticals, Inc., priority 2005, published 2006)

Legend:
HCT116 cells = assay: PAD anti-proliferation assay, HCT; type: cell-based; conditions: Homo sapiens, HCT-116, 48 hours
Procedure: A549 (ATCC# CCL 185), HeLa (ATCC# CCL 2), HCT116 (ATCC# CCL-247), and H 1299 (ATCC# CRL-5803) cells were maintained in T175 flasks following the ATCC recommended media and handling procedures. Flasks reaching approximately 70% confluency were trypsinized and resuspended in RPMI media (Cell Gro catalog number 10 040 CM) modified to contain 5% FBS, 100 ug/mlPen/Strep (Cell Gro catalog number 30 002 CL), and 0.3 mg/ml L Glutamine (Cell Gro catalog number 25 003 CL). A 20,000 cells/ml solution was made for plating. Cells were plated in black Packard 96 well plates by placing 100 μl per well (2,000 cells per well).
Compounds and additional media were added 24′ hours after cell plating. A compound master plate was created with concentrations 500 times greater than the final concentration added to the cells. All compound testing was done in duplicate using 3 fold dilutions starting with 10 mM. All outside wells (and 4 internal wells) were DMSO controls. Taxol and at least one additional control were run on all plates. Three microliters of the compound master plate were added to deep well blocks containing 750 μl of RPMI media. One hundred microliters were transferred from the compound/media deep well blocks to the plated cells resulting in a 500 fold dilution of the compounds. Cells were grown at 37° C., 5% CO2 for 48 hours.
Cells to be analyzed by photography were fixed and stained. One hundred microliters of media were removed and 100 μl of 2% paraformaldehyde was added to each well. Plates were left on the benchtop for 45 minutes. A staining solution containing 1.55 μl of 1 mg/ml DAPI added to 18.75 ml PBS was warmed for 15 minutes at 37° C. The cells were aspirated prior to washing with 100 μl of PBS. Seventy microliters of PBS were aspirated and 170 μl of the DAPI solution were added to each well of fixed cells. Plates were left at room temperature for one hour then aspirated and washed twice with 100 μl of PBS. The stained cells were left at 4° C. for a minimum of 16 hours before photographic analysis with Array Scan II (Cellomics). Analysis of the photographic images to determine numbers of live cells (proliferation), apoptotic cells and dead cells, were according to the methods described in U.S. Provisional Patent Application Ser. No. 60/406,714, which incorporated herein in its entirety.

DLD-1 cells = assay: PAD anti-proliferation assay, DLD-1; type: cell-based; conditions: Homo sapiens, 48 hours
[1] = system: GADD45 promoter (DNA damage response reporter); assay: H1299 GADD45 reporter system; type: cell-based; conditions: human; p53 −ve cell type; maximal fold induction over DMSO control; read-out: Fold Induction, H1299GADD45
Text: (§1) Stable lines of U2OS (osteosarcoma; Wild-type p53 positive), HCT116 (colorectal carcinoma; Wild-type p53 positive) and H1299 (lung non-small cell carcinoma; p53 null) carrying p53-dependent transcriptional regulatory element linked to a Luciferase reporter gene and H1299 carrying a 5′-regulatory region of GADD45 linked to Luciferase were used.
(§2) Day 1: Cells were re-plated into 96-well plates at suitable densities to make 50-60% confluence on Day 2. The plating densities are as follows: 7.5×10^3 cells/well (or 2.5×10^4 cells/cm^2) for U2OS; 1.5×10^4 cells/well (or 5.0×10^4 cells/cm^2) for HCT116; and 1.0×10^4 cells/well (or 3.3×10^4 cells/cm^2) for H1299.
(§3) Day 2: The compounds or control drugs were diluted in dimethyl sulfoxide (DMSO) and added to the wells to create 6-points/2-fold serial dilution (20, 10, 5, 2.5, 1.25, 0.625 and 0 μM) for each compound. The DMSO concentration was adjusted to 0.2% in all wells.
(§4) Day 3: Twenty to 24 hours after compound addition, cells were twice washed with PBS and lysed with Glo-lysis buffer (100 μl/well, Promega; Cat#E2661). Plates were subjected to gentle agitation on a table-top shaker for 5 minutes at room temperature. Fifty μl of lysate was transferred to an assay plate to test for luciferase activity and mixed with 2× assay buffer (Promega; Cat# E1483). The reaction mixture was left at room temperature for 2 minutes and then luminescence was measure by a luminometer (Victor™, 1420 Multilabel Counter, Wallac).
(§5) Data analysis was done on Excel software (Microsoft). Values in Table 4 represent maximal fold induction over negative control (DMSO only) and are the mean of at least duplicate experiments.
H1299 GADD45 Reporter System is a system in which GADD45 is induced in p53-null cells in response to DNA damage. This cell line expresses the 5′-regulatory region of the GADD45 gene. This assay provides a way to rule out the possibility of DNA damage due to the compounds.

E2 (Ubch5c) = E2 (Ubch5c) (Homo sapiens, UniProt P61077); assay: E2 ligase assay, E2 auto-ubiquitination; type: biochemical; conditions: Table 2
E2 (Ubch5c), sequence (P61077 whole entry): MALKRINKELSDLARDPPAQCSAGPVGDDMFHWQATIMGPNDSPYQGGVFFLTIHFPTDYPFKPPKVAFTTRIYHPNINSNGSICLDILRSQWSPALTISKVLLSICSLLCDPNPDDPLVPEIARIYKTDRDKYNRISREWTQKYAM
Procedure: E2 (Ubch5c) auto-ubiquitination was measured as described in U.S. patent application Ser. No. 09/826,312 (Publication No. US-2002-0042083-A1), which is incorporated herein in its entirety. Details of the protocol are described below. Activity in the presence of the test compound was determined relative to a parallel control in which only DMSO was added. The IC50 values were typically determined using 6 or 8 different concentrations of compound, although as few as 2 concentrations may be used to approximate IC50 values.
Corning 96-well plates (Corning 3650) were blocked with 100 μl of Blocking Buffer for 1 hour at room temperature. The plates were washed for 4 times with 225 μl of 1×PBS and 80 μl of the reaction buffer were added that contained 100 ng/well of Flag-ubiquitin. To this, 10 μl of the test compound diluted in DMSO were added. After the test compound was added, 10 μl of E1 (human) and E2 (Ubch5c) in Protein Buffer were added to obtain a final concentration of 5 ng/well of E1 and 20 ng/well of E2. The plates were shaken for 10 minutes and incubated at room temperature for 1 hour. After incubation, the reaction was stopped by adding 25 μl of loading buffer (non-reducing) per well and the plates were heated at 95° C. for 5 minutes. An aliquot of each well was run on a 10% NugePage Gel and analyzed by Western Blot using the antibody mix and Lumino substrate described below. The luminescence was measured using a BMG luminescence microplate reader.

[2] = system: p53 reporter system in p53 null H1299 cell line; assay: p53-dependent transcription reporter assay, H1299RE; type: cell-based; conditions: p53 −ve cell type; maximal fold induction over DMSO control
Text: as §1, §2, §3, §4, §5
H1299RE is p53 null […] cell line containing p53 reporter system. Numbers indicate the selectivity of the compound with smaller number being higher selectivity.

E1 and E2 (UBCH5a) = E1 and E2 (UBCH5a) (Homo sapiens, UniProt P22314+P51668); assay: E1/E2 plate enzyme counter assay; type: biochemical; conditions: Table 3, counter assay
Text: E1/E2 is E1 and E2 (UBCH5a) enzyme counter assay.

Structure (SMILES) | IC50 (HCT116 cells) [µM] | IC50 (DLD-1 cells) [µM] | fold induction [1] | IC50 (E2 (Ubch5c)) [µM] | Fold Induction of p53 activity, H1299RE [2] | E1/E2 plate μM (E1 and E2 (UBCH5a))
O=C(c1ccc(CN(Cc2cccc(OC(F)(F)F)c2)c2nc(-c3ccccc3)cs2)cc1)N1CCNCC1 [compound 275] | 1 to 20 | 1 to 20 | – | – | – | –
O=C(c1ccc(CN(Cc2cccc(OC(F)(F)F)c2)c2nc(-c3ccc4ccccc4c3)cs2)cc1)N1CCNCC1 [compound 282, 4-(2-naphthyl)-N-[4-(piperazin-1-ylcarbonyl)benzyl]-N-[3-(trifluoromethoxy)benzyl]-1,3-thiazol-2-amine] | 1 to 20 | 1 to 20 | – | – | – | –
COc1cccc(-c2csc(N(Cc3ccc(C(=O)N4CCNCC4)cc3)Cc3cccc(OC(F)(F)F)c3)n2)c1 [compound 351] | 1 to 20 | – | ≤ 1.5 | ≥ 20 | c (c means 1.5 or less) | –
COc1cccc(-c2csc(N(CCOc3ccccc3)Cc3ccc(C(=O)N4CCNCC4)cc3)n2)c1 [compound 352] | – | – | ≤ 1.5 | ≥ 20 | c (c means 1.5 or less) | –
COc1cccc(CN(Cc2ccc(C(=O)N3CCNCC3)cc2)c2nc(-c3ccc(Br)cc3)cs2)c1OC [compound 353] | 1 to 20 | – | ≤ 1.5 | ≥ 20 | c (c means 1.5 or less) | –
O=C(c1ccc(CN(CCOc2ccccc2)c2nc(-c3ccc(Cl)c(Cl)c3)cs2)cc1)N1CCNCC1 [compound 360] | 1 to 20 | 1 to 20 | ≤ 1.5 | ≥ 20 | c (c means 1.5 or less) | + (+ means 20 μM or greater)
